Measurements as given in patent publication US6737383B1, “Herbicidal oxadiazolidines” (priority 1999, dated 2004).

Legend:
bedstraw = assay: Test B pre/postemergence bedstraw; format: in vivo, Galium aparine
How it was run: (§1)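 Herbicidal effect was estimated by eye on a ten-point control scale after plants spent twelve to sixteen days in a greenhouse following soil or foliar treatment. Foliar sprays targeted plants at one to four leaves; all doses were formulated in a non-phytotoxic solvent with surfactant.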

duck salad = assay: Test B flood test duck salad; format: in vivo, Heteranthera limosa; details: for Ducksalad plant response rating (0 to 10 scale, 0 is no effect, 10 is complete control): under heading Pre-emergence
How it was run: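 Flood test on plants grown to the 2-leaf stage; treated plants kept in greenhouse twelve to sixteen days, then visually rated against controls on a 0 (no effect) to 10 (complete control) scale.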

corn = assay: Test B pre/postemergence corn; format: in vivo, Zea mays
How it was run: as §1

soybean = assay: Test B pre/postemergence soybean; format: in vivo, Glycine max
How it was run: as §1

[1] = Rate 62 g/ha, Postemergence, scale of 0 to 10 where 0 is no effect and 10 is complete control
[2] = Rate 125 g/ha, Postemergence, scale 0 to 10, 0 is no effect, 10 is complete control
[3] = Postemergence, Rate 250 g/ha, scale 0 to 10
[4] = Postemergence, Rate 500 g/ha, scale of 0 to 10 where 0 is no effect and 10 is complete control
[5] = Preemergence, Rate 62 g/ha, scale 0 to 10 (0 no effect, 10 complete control)
[6] = Preemergence, Rate 125 g/ha, scale of 0 to 10 where 0 is no effect and 10 is complete control
[7] = Preemergence, Rate 250 g/ha, scale 0 to 10, 0 is no effect, 10 is complete control
[8] = Preemergence, Rate 500 g/ha, scale 0 to 10, 0 is no effect, 10 is complete control
[9] = Preemergence, Rate 250 g/ha, scale 0 to 10 (0 no effect, 10 complete control)
[10] = Preemergence, Rate 500 g/ha, scale of 0 to 10 where 0 is no effect and 10 is complete control
[11] = Rate 1000 g/ha, Preemergence, scale 0 to 10 (0 no effect, 10 complete control)
[12] = Rate 125 g/ha, flood test species, visual evaluation after twelve to sixteen days
[13] = Rate 250 g/ha, Pre-emergence (flood test species), scale 0 to 10, 0 is no effect, 10 is complete control
[14] = Postemergence, Rate 125 g/ha, scale of 0 to 10 where 0 is no effect and 10 is complete control
[15] = Postemergence, Rate 250 g/ha, scale of 0 to 10, 0 is no effect, 10 is complete control
[16] = Postemergence, Rate 1000 g/ha, scale 0 to 10 (0 no effect, 10 complete control)
[17] = Rate 62 g/ha, Postemergence, scale 0 to 10 (0 no effect, 10 complete control)
[18] = Rate 500 g/ha, Pre-emergence, flood test species, scale 0 to 10 (0 no effect, 10 complete control)
[19] = Preemergence, Rate 62 g/ha, scale of 0 to 10 where 0 is no effect and 10 is complete control
[20] = Preemergence, Rate 250 g/ha, scale of 0 to 10 where 0 is no effect and 10 is complete control
[21] = Rate 125 g/ha, Postemergence, scale of 0 to 10 where 0 is no effect and 10 is complete control
[22] = Rate 125 g/ha, Preemergence, scale of 0 to 10 where 0 is no effect and 10 is complete control
[23] = Rate 250 g/ha, Postemergence, scale of 0 to 10 where 0 is no effect and 10 is complete control
[24] = Rate 500 g/ha, Postemergence, scale 0 to 10, 0 no effect, 10 complete control

`CC(C)N(C(=O)n1oc(=O)n(CC#N)c1=O)c1ccccc1` [Compound 434] was tested, and the “Bedstraw plant response rating” value (bedstraw; [1]) was 0, the “Bedstraw plant response rating” value (bedstraw; [2]) was 0 and the “Ducksalad plant response rating” value (duck salad; Postemergence block (flood test species), Rate 250 g/ha, scale 0 to 10) was 0. The “Ducksalad plant response rating” value (duck salad; Postemergence section (flood test species), Rate 500 g/ha, scale of 0 to 10 where 0 is no effect and 10 is complete control) was 0, the “Ducksalad plant response rating” value (duck salad; Rate 62 g/ha, Postemergence (flood test species), scale of 0 to 10 where 0 is no effect and 10 is complete control) was 0 and the “Ducksalad plant response rating” value (duck salad; Rate 125 g/ha, Postemergence section (flood test species), scale 0 to 10, 0 is no effect, 10 is complete control) was 0. The “Corn plant response rating” value (corn; [3]) was 0, the “Corn plant response rating” value (corn; [4]) was 0 and the “Plant response rating, Corn” value (corn; [5]) was 0. For the same molecule, the “Plant response rating, Corn” value (corn; [6]) was 0, the “Corn plant response rating” value (corn; [7]) was 0 and the “Corn plant response rating” value (corn; [8]) was 0. For the same molecule, the “Corn plant response rating” value (corn; [1]) was 0, the “Corn plant response rating” value (corn; [2]) was 0 and the “Soybean plant response rating” value (soybean; [3]) was 1. For the same molecule, the “Soybean plant response rating” value (soybean; [4]) was 1, the “Plant response rating, Soybean” value (soybean; [5]) was 0 and the “Plant response rating, Soybean” value (soybean; [6]) was 0. The “Soybean plant response rating” value (soybean; [7]) was 0, the “Soybean plant response rating” value (soybean; [8]) was 0 and the “Soybean plant response rating” value (soybean; [2]) was 0.

`CCOP(=O)(OCC)C(C)n1c(=O)on(C(=O)N(c2ccc(F)cc2)C(C)C)c1=O` (stereo not shown) [Compound 617] was tested, and the “Bedstraw plant response rating” value (bedstraw; [6]) was 0, the “Plant response rating, Bedstraw” value (bedstraw; [9]) was 0 and the “Bedstraw plant response rating” value (bedstraw; [10]) was 0. The “Plant response rating, Bedstraw” value (bedstraw; [11]) was 0, the “Ducksalad plant response rating” value (duck salad; Pre-emergence, Rate 1000 g/ha, scale 0 to 10 (0 no effect, 10 complete control)) was 0 and the “Ducksalad plant response rating (0 to 10 scale, 0 is no effect, 10 is complete control)” value (duck salad; [12]) was 0. For the same molecule, the “Ducksalad plant response rating” value (duck salad; [13]) was 0, the “Ducksalad plant response rating” value (duck salad; Rate 500 g/ha, Pre-emergence section of Table B, 0 to 10 scale (0 no effect, 10 complete control)) was 0 and the “Plant response rating, Corn” value (corn; [14]) was 0. The “Corn plant response rating” value (corn; [15]) was 0, the “Plant response rating, Corn” value (corn; [4]) was 0 and the “Corn plant response rating” value (corn; [16]) was 0. For the same molecule, the “Corn plant response rating” value (corn; [6]) was 0, the “Plant response rating, Corn” value (corn; [9]) was 0 and the “Plant response rating, Corn” value (corn; [10]) was 0. The “Plant response rating, Corn” value (corn; [11]) was 0, the “Plant response rating, Soybean” value (soybean; [14]) was 1 and the “Soybean plant response rating” value (soybean; [15]) was 3. The “Soybean plant response rating” value (soybean; [16]) was 7, the “Soybean plant response rating” value (soybean; [6]) was 0 and the “Plant response rating, Soybean” value (soybean; [9]) was 0. The “Plant response rating, Soybean” value (soybean; [10]) was 0 and the “Plant response rating, Soybean” value (soybean; [11]) was 1.

In the case of `CC(C)N(C(=O)n1oc(=O)n(C(C)C(=O)N(C)C)c1=O)c1ccc(F)cc1` (stereo not shown) [Compound 478], the “Plant response rating, Bedstraw” value (bedstraw; [6]) is reported as 8, the “Bedstraw plant response rating” value (bedstraw; [7]) is reported as 8 and the “Bedstraw plant response rating” value (bedstraw; [17]) is reported as 0. The “Bedstraw plant response rating” value (bedstraw; [2]) was 0, the “Plant response rating, Ducksalad (0 to 10 scale, 0 is no effect, 10 is complete control)” value (duck salad; Rate 62 g/ha, flood test species, Pre-emergence, visual evaluation after twelve to sixteen days) was 0 and the “Ducksalad plant response rating (0 to 10 scale, 0 is no effect, 10 is complete control)” value (duck salad; [12]) was 0. The “Ducksalad plant response rating” value (duck salad; [13]) was 0, the “Ducksalad plant response rating” value (duck salad; [18]) was 0 and the “Corn plant response rating” value (corn; [3]) was 0. The “Corn plant response rating” value (corn; [4]) was 2, the “Plant response rating, Corn” value (corn; [19]) was 0 and the “Plant response rating, Corn” value (corn; [6]) was 0. The “Corn plant response rating” value (corn; [7]) was 0, the “Corn plant response rating” value (corn; [8]) was 0 and the “Corn plant response rating” value (corn; [17]) was 0. The “Corn plant response rating” value (corn; [2]) was 0, the “Soybean plant response rating” value (soybean; [3]) was 2 and the “Plant response rating, Soybean” value (soybean; [19]) was 0. The “Plant response rating, Soybean” value (soybean; [6]) was 0, the “Soybean plant response rating” value (soybean; [7]) was 0 and the “Soybean plant response rating” value (soybean; [8]) was 0. The “Soybean plant response rating” value (soybean; [17]) was 2 and the “Soybean plant response rating” value (soybean; [2]) was 2.

`Cc1ccccc1-n1c(=O)on(C(=O)N(c2ccc3c(c2)CCC3)C(C)C)c1=O` [Compound 278] was tested, and the “Bedstraw plant response rating” value (bedstraw; [20]) was 0, the “Plant response rating, Bedstraw” value (bedstraw; [10]) was 0 and the “Bedstraw plant response rating” value (bedstraw; [17]) was 0. The “Bedstraw plant response rating” value (bedstraw; [21]) was 0, the “Bedstraw plant response rating” value (bedstraw; [22]) was 0 and the “Plant response rating, Bedstraw” value (bedstraw; [23]) was 6. The “Bedstraw plant response rating” value (bedstraw; [24]) was 8, the “Ducksalad plant response rating” value (duck salad; Rate 62 g/ha, headed Pre-emergence (flood test species), scale 0 to 10 (0 no effect, 10 complete control)) was 0 and the “Ducksalad plant response rating” value (duck salad; Rate 125 g/ha, Pre-emergence, flood test species, scale 0 to 10 where 0 is no effect and 10 is complete control) was 0. For the same molecule, the “Ducksalad plant response rating” value (duck salad; Rate 250 g/ha, Pre-emergence, flood-test species, scale 0 to 10, 0 is no effect, 10 is complete control) was 0, the “Ducksalad plant response rating” value (duck salad; [18]) was 0 and the “Corn plant response rating” value (corn; [19]) was 0. The “Corn plant response rating” value (corn; [20]) was 0, the “Plant response rating, Corn” value (corn; [10]) was 0 and the “Corn plant response rating” value (corn; [17]) was 0. The “Corn plant response rating” value (corn; [21]) was 0, the “Corn plant response rating” value (corn; [22]) was 0 and the “Plant response rating, Corn” value (corn; [23]) was 0. For the same molecule, the “Corn plant response rating” value (corn; [24]) was 0, the “Soybean plant response rating” value (soybean; [19]) was 0 and the “Soybean plant response rating” value (soybean; [20]) was 0. For the same molecule, the “Plant response rating, Soybean” value (soybean; [10]) was 0, the “Soybean plant response rating” value (soybean; [17]) was 1 and the “Soybean plant response rating” value (soybean; [21]) was 1. The “Soybean plant response rating” value (soybean; [22]) was 0, the “Plant response rating, Soybean” value (soybean; [23]) was 1 and the “Soybean plant response rating” value (soybean; [24]) was 1.
